Values quoted from earlier work as cited in patent publication US9744133B2, “Enhanced stability of novel liquid compositions” (Pfizer Inc., priority 2013, dated 2017).

Conditions: 25° C.

In the case of `COc1ccccc1OCC(O)CO` (stereo not shown) [Guaifenesin], the Solubility in water is listed as “approximately 4 % by weight”.
